The record followed here is publication PMC10698726 (Molecular Pharmaceutics, 2023).

Where “and” joins values, the source holds several entries; their conditions need not be identical. Identical values can stand only once. Like-named read-outs stand apart in the source and are kept apart here.

The term inhibition denotes the change of the read-out against control, counted positive when it falls. Usually IC50 stands for the concentration that inhibits the measured activity by half.

For one data set, the target named is T1, OCT3 (Homo sapiens, UniProt O75751).
T1 construct: expressed in transfected cells; host or cells: HEK293
T1 sequence (O75751 1-556): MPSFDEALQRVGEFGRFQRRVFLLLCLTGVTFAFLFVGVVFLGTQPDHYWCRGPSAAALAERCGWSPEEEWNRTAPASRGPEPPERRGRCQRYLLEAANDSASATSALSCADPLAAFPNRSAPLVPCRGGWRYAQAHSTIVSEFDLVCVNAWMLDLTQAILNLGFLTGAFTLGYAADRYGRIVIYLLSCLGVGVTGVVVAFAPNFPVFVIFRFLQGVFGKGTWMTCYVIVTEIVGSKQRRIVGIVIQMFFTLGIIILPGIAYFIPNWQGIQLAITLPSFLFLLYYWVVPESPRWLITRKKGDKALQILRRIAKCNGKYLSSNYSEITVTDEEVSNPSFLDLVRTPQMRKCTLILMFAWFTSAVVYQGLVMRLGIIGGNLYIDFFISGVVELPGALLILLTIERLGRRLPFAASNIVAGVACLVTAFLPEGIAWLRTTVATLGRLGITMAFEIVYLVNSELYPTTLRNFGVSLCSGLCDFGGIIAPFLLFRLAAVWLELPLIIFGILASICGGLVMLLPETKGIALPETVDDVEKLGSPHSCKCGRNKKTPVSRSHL
The data set is described as follows: Inhibition of model substrate uptake in OCT3-overexpressing HEK293 cells. The conditions noted are these: for IC50: read-out: IC50; for x-fold Stereoselectivity: ratio of the IC50 values of the two enantiomers of the drug. Format: cell-based. As for the experimental part: (§1) All experiments were carried out in transporter-overexpressing HEK293 cells. OCT1-, OCT2-, NET-, DAT-, and SERT-overexpressing cells as well as the empty-vector transfected control cell line were generated as described earlier,[26]−[28] whereas the OCT3-overexpressing HEK293 cells were generous gift of from Drs. Koepsell and Gorbulev (University of Würzburg, Germany). All cells were cultivated in Dulbecco’s modified Eagle’s medium (DMEM) supplemented with 10% (v/v) FCS, penicillin (100 U/mL), and streptomycin (100 μg/mL) and kept in culture for no longer than 30 passages.
(§2) As for the transport experiments, 300,000 HEK293 cells were plated in poly-D-lysine-coated 24-well plates 2 days ahead of the experiment. On every plate, two wells of empty vector (EV)-transfected cells were used as a control to account for the passive influx of the model substrate, and two wells of transporter-overexpressing cells were used to determine the noninhibited uptake of the model substrate. Cells were initially washed once with 37 °C HBSS+ and then incubated with 2 μM model substrate (0.2 μM for MPP^+ uptake by MATs) with and without 20 μM inhibitor for 5 min. For concentration-dependent inhibition experiments, the cells were incubated with increasing inhibitor concentrations. The incubation was terminated by aspiration of the buffer before cells were washed twice with ice-cold HBSS+ and lysed in 80% acetonitrile. Cell lysates were transferred into a black 96-well plate for the fluorescence measurement of ASP^+ or used for sample preparation for LC–MS/MS analysis. […] Fluorescence quantification was performed in technical duplicates.
(§3) Transporter-mediated net uptake was calculated as the difference between uptake in transporter-overexpressing cells and that in the empty-vector-transfected control. […] Vmax is the maximum transport velocity, while Km is defined as the substance concentration that is required to reach half of vmax. The ratio of vmax over Km is termed intrinsic clearance Clint. For inhibition experiments, the transport activity was calculated by using the following equation [drawing 1]
(§4) SubstrateEV refers to the passive uptake of model substrates into the control cells and substratenoninhibited is the uptake in transporter-overexpressing cells without the presence of any inhibitor. The percent inhibition values are then calculated as described in the following [drawing 2]
(§5) For concentration inhibition experiments, the transporter activity was plotted against the log10 of inhibitor concentrations, and the data were fitted by the following equation to determine IC50 values [drawing 3]
(§6) Y refers to the transporter activity, whereas Ymax is the maximum and Ymin is the minimal transporter activity. X is the log10 of inhibitor concentrations, IC50 is the half-maximal inhibitory concentration, and hill slope is the slope factor.

In another data set the target is T2, OCT2 (Homo sapiens, UniProt O15244).
T2 sequence (O15244 1-555): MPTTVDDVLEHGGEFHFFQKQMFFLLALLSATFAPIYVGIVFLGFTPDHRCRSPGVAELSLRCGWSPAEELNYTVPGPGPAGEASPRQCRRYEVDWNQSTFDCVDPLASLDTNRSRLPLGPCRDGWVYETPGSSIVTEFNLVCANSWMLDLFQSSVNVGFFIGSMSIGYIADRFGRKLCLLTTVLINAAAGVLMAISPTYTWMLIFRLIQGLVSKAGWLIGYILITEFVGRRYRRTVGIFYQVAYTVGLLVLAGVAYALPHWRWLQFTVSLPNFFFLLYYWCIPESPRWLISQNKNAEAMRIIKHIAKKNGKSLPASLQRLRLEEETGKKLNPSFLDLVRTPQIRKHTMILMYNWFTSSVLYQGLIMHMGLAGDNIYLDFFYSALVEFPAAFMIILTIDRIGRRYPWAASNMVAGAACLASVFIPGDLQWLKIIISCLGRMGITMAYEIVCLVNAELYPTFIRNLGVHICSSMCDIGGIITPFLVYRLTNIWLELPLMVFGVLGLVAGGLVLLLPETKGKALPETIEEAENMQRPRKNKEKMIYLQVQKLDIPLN
Kind of data set: Inhibition of model substrate uptake in OCT2-overexpressing HEK293 cells. Particulars: for IC50: IC50, OCT2, Table S5, 2 μM ASP+ as model substrate, 5 min; for selectivity ratio at 5 min: OCT2-overexpressing HEK293 cells. On the procedure: as §1, §2, §3, §4, §5, §6

The mark [1] stands for this setting: OCT3, 20 μM inhibitor, 2 μM ASP+, 5 min.
The mark [2] stands for this setting: HEK293, 5 min, read-out: (S)-Zolmitriptan inhibition [%], OCT3, 20 μM inhibitor, 2 μM (S)-zolmitriptan, 5 min.
Setting [3] is: HEK293, 5 min, read-out: (S,S)-Ethambutol inhibition [%], OCT3, 20 μM inhibitor, 2 μM (S,S)-ethambutol, 5 min.
Setting [4] is: HEK293, OCT3, 20 μM inhibitor, 2 μM ASP+, 5 min, read-out: ASP+ inhibition [%].
Where [5] appears, read: HEK293, 5 min, read-out: (S)-Zolmitriptan inhibition [%].
[6] abbreviates: OCT3, Table S5, 2 μM ASP+ or ethambutol as model substrate, 5 min.
The mark [7] stands for this setting: OCT3, model substrate 2 μM (S)-zolmitriptan, 5 min.
Where [8] appears, read: OCT3, model substrate 2 μM (S,S)-ethambutol, 5 min.
Where [9] appears, read: OCT3, model substrate 2 μM N-ethyllidocaine, 5 min.
[10] abbreviates: OCT3, 20 μM inhibitor, 2 μM (S,S)-ethambutol, 5 min.
Where [11] appears, read: HEK293, 5 min, read-out: (S,S)-Ethambutol inhibition [%].
The mark [12] stands for this setting: OCT3, 20 μM inhibitor, 2 μM (S)-zolmitriptan, 5 min.
Setting [13] is: OCT2, ratio of the IC50 values of the two enantiomers of the drug.

Turning to `C1CCN2C[C@@H]3C[C@@H](CN4CCCC[C@@H]34)[C@H]2C1` [(-)-Sparteine], on OCT3, the “(S)-Zolmitriptan inhibition [%]” value is on record as 11.0 and the “(S,S)-Ethambutol inhibition [%]” value turned out to be 20.7. Moreover, the “ASP+ inhibition [%]” value on OCT3 (setting [1]) worked out at 0.4%.

Take `CC(C)NC[C@@H](O)COc1ccc(CC(N)=O)cc1` [(R)-Atenolol]: the values for the inhibition at 20 µM on OCT3 (setting [2]), on OCT3 (setting [3]) and at OCT3 (setting [4]) were 5.5%, 0.9% and 3.9%, respectively.

As to `CCCNC[C@@H](O)COc1ccccc1C(=O)CCc1ccccc1` [(R)-Propafenone], the inhibition at 20 µM turned out to be 53.6% at OCT3 (setting [2]) and 17.3% on OCT3 (setting [4]).

Regarding `Cc1ccc(O)c([C@H](CCN(C(C)C)C(C)C)c2ccccc2)c1` [(R)-Tolterodine], the IC50 turned out to be 0.2 µM on OCT2; 2300 nM at OCT3 (setting [6]); 570 nM on OCT3 (setting [7]); 390 nM at OCT3 (setting [8]); 230 nM on OCT3 (setting [9]); 170 nM at OCT3. In addition, the inhibition at 20 µM at OCT3 (setting [5]) was found to be 97.6%. For the same molecule, the “ASP+ inhibition [%]” value on OCT3 (setting [1]) is listed as 94%.

Take `CNCC[C@@H](Oc1ccccc1C)c1ccccc1` [(R)-Tomoxetine]: on OCT2, the IC50 stood at 6.3 µM. Further, the inhibition at 20 µM on OCT3 (setting [2]) came to 33.2%. The “(S,S)-Ethambutol inhibition [%]” value on OCT3 (setting [10]) was determined as 39.0%. For the same molecule, the “ASP+ inhibition [%]” value at OCT3 (setting [1]) worked out at 1.1%.

On to `COc1ccc(CCN(C)CCC[C@](C#N)(c2ccc(OC)c(OC)c2)C(C)C)cc1OC` [(R)-Verapamil], for which the inhibition at 20 µM on OCT3 (setting [5]) came to 42.1%; at OCT3 (setting [11]) it was 48.9%; at OCT3 (setting [4]), 8.2%.

In the case of `CC(C)NC[C@H](O)COc1ccc(CC(N)=O)cc1` [(S)-Atenolol], the figures for the inhibition at 20 µM at OCT3 (setting [2]), at OCT3 (setting [3]) and at OCT3 (setting [4]) were -3.8%, 2.9% and 0.9%, respectively.

Take `CCCNC[C@H](O)COc1ccccc1C(=O)CCc1ccccc1` [(S)-Propafenone]: the “(S)-Zolmitriptan inhibition [%]” value on OCT3 (setting [12]) is recorded as 62.0%. In addition, on OCT3 (setting [10]), the “(S,S)-Ethambutol inhibition [%]” value stood at 76.4%. The “ASP+ inhibition [%]” value at OCT3 (setting [1]) turned out to be 23.8%.

`Cc1ccc(O)c([C@@H](CCN(C(C)C)C(C)C)c2ccccc2)c1` [(S)-Tolterodine]: the IC50 on OCT2 was 0.13 µM; at OCT3 (setting [6]) it was 25300 nM; on OCT3 (setting [7]), 7000 nM; at OCT3 (setting [8]) it was 6370 nM; at OCT3 (setting [9]) it was 3100 nM; on OCT3 (OCT3, model substrate 2 μM famotidine, 5 min), 2310 nM. Besides, the “(S)-Zolmitriptan inhibition [%]” value on OCT3 came to 82.9. Moreover, the “(S,S)-Ethambutol inhibition [%]” value at OCT3 is on record as 89.8. The “ASP+ inhibition [%]” value at OCT3 (setting [1]) was 53.5% and 54%.

`CNCC[C@H](Oc1ccccc1C)c1ccccc1` [(S)-Tomoxetine]: at OCT2, the IC50 came to 17.1 µM. Moreover, on OCT3 (setting [12]), the “(S)-Zolmitriptan inhibition [%]” value stood at 21.1%. The “(S,S)-Ethambutol inhibition [%]” value on OCT3 (setting [10]) is -5.7%. In addition, the “ASP+ inhibition [%]” value on OCT3 (setting [1]) is on record as -8.3%.

In the case of `COc1ccc(CCN(C)CCC[C@@](C#N)(c2ccc(OC)c(OC)c2)C(C)C)cc1OC` [(S)-Verapamil], the results for the inhibition at 20 µM at OCT3 (setting [5]), at OCT3 (setting [11]) and on OCT3 (setting [4]) were 57.6%, 70.7% and 20.8%, respectively.

Take `CCN1CCCC1CNC(=O)c1cc(S(=O)(=O)CC)c(N)cc1OC` (stereo not shown) [Amisulpride]: the “difference between enantiomers in the inhibition of OCT2 (in words)” value on OCT2 (ASP+ screening, 20 μM inhibitor) is reported as “noticeable differences”. At OCT2 (setting [13]), the “x-fold Stereoselectivity” value is 3.2 fold.

On to `C#CCN(C)C(C)Cc1ccccc1` (stereo not shown) [Deprenyl], for which the “x-fold Stereoselectivity” value at OCT2 (human, pH 7.4) amounted to 1.4 fold.

Consider `OCC(O)CN1CCN(c2ccccc2)CC1` (stereo not shown) [Dropropizine], for which the “x-fold Stereoselectivity” value at OCT2 (setting [13]) was determined as 1.4 fold.

`O=C1c2cccc3c2[C@H](CCC3)CN1[C@@H]1CN2CCC1CC2` [Palonosetron]: on OCT2 (ASP+ uptake, reduced inhibitor concentrations (Figure S4)), the “stereoselectivity in the inhibition of OCT2 (in words)” value is on record as “relevant stereoselectivity”. In addition, on OCT2 (human, pH 7.4), the selectivity ratio at 5 min was found to be 3.2. For the same molecule, the “x-fold Stereoselectivity” value at OCT3 (OCT3) is 2.5 fold.

For the molecule `CC(C)(C)NC[C@H](O)COc1nsnc1N1CCOCC1` [Timolol], the selectivity ratio at 5 min on OCT2 (human, pH 7.4) came to 2.

Turning to `CN(C)CCc1c[nH]c2ccc(C[C@H]3COC(=O)N3)cc12` [Zolmitriptan], the “x-fold Stereoselectivity” value at OCT3 (OCT3) was determined as 25 fold. Further, the “stereoselective inhibition of OCT3 (in words)” value at OCT3 (ethambutol and zolmitriptan as substrates, 20 μM inhibitor) is given as “stereoselective inhibition”.
